Legend:
[1] = test system: NF-κB signaling pathway in LPS-exposed BV-2 cells; test: Western blotting of p-NF-κB and NF-κB in LPS-exposed BV-2 cells; assay type: cell-based, murine; conditions: 1 and 10 µM, LPS 1 µg/mL 4 h
Procedure: Then the cells were incubated with or without LPS (1 µg/mL) for 4 h. Cells were harvested using trypsin and washed twice in cold Dulbecco’s phosphate-buffered saline and lysed with RIPA lysis buffer (Elpis, Daejeon, Korea) containing protease and phosphatase inhibitor mini tablets (Thermo Fisher, Waltham, MA, USA). Protein lysate concentrations were determined using the Pierce BCA Protein Assay kit (Thermo Fisher). Protein samples (5 µg) were separated via 5–20% sodium dodecyl sulfate polyacrylamide gel electrophoresis and then transferred to polyvinylidene fluoride membranes (ATTO, Tokyo, Japan). After transfer, membranes were blocked using Tris-buffered saline containing 0.5% Tween 20 and 5% bovine serum albumin at room temperature for 1 h. The membranes were incubated overnight at 4℃ with primary antibodies at a dilution ratio of 1:1000. […] Subsequently, blots were detected using horseradish peroxidase-conjugated secondary antibodies (1:10,000 dilution) and the ECL substrate (Millipore Corporation, Billerica, MA, USA) at room temperature for 1 h. Protein expression levels were measured using WSE-6100 LuminoGraph (ATTO). The bands were analyzed using the ImageJ software (NIH, Bethesda, MD, USA).

[2] = test system: PDE4As, PDE4Bs and PDE4Ds; conditions: against PDE4As; cited from earlier work
[3] = test system: PDE4Cs; conditions: against PDE4Cs; cited from earlier work
[4] = test system: PDE4B; conditions: quoted in discussion without reference, cf. b4; read-out: PDE4B inhibitory concentration; cited from earlier work
[5] = mice and rats; cited from earlier work
[6] = test system: memory; conditions: rodents; cited from earlier work
[7] = test system: APP/PS1 mouse model; conditions: 0.1, 0.2, and 0.4 mg/kg intragastrically for 3 weeks, APP/PS1 mice; cited from earlier work
[8] = test system: TNF-α, IL-1β, and IL-6 levels and apoptotic neurons in the brain; conditions: 3 mg/kg subcutaneous, following subarachnoid hemorrhage; cited from earlier work
[9] = test system: BV-2 cells; assay type: cell-based, murine; conditions: 24 h exposure, tested up to 100 µM
Procedure: Cell viability was assessed using the WST-8 assay with Cyto X reagent (LPS Solution, Daejeon, Korea). BV-2 microglial cells were seeded at a density of 5 × 10^5 cells/mL in 96-well plates. […] Finally, Cyto X solution was loaded in each well and incubated for 20 min.

[10] = test system: PDE4D7; parameters: method as in PMID 33363155; conditions: against PDE4D7; cited from earlier work
[11] = test system: PDE4D3; parameters: method as in PMID 33363155; conditions: against PDE4D3; cited from earlier work
[12] = test system: brain cAMP levels; parameters: method as in PMID 28772081, PMID 33363155; conditions: cited from earlier work

## O=C(Nc1c(Cl)cncc1Cl)c1ccc(OC(F)F)c(OCC2CC2)c1 [roflumilast]
[1]
  Effect on LPS-induced increase in p-NF-κB expression: prevented the LPS-induced increase in p-NF-κB expression in a concentration-dependent manner
[2]
  IC50: […]
[3]
  IC50: […]
[4]
  IC50: […]
[5]
  Calculated oral emetic dosages: […]
[6]
  Effect on memory in object-location task and spatial Y-maze: enhanced memory
[7]
  Performance in Morris water maze, novel object recognition, and passive avoidance tasks: restored performance
[8]
  TNF-α, IL-1β, and IL-6 levels and number of apoptotic neurons in the brain: decreased

## O=C(O)Cc1ccc(Cc2cc(-c3cccc(Cl)c3)nc(C(F)(F)F)c2)cc1 [zatolmilast]
[9]
  Nontoxic concentrations: […]
[1]
  Effect on LPS-induced increase in p-NF-κB expression: did not
[10]
  IC50: […]
[11]
  IC50: 7.4 nM
[12]
  Effect on brain cAMP levels: increases brain cAMP levels
